From patent US7084136B2, “Drug composition antagonistic to both PGD2/TXA2 receptors” (Shionogi & Co., Ltd., priority 2000, dated 2006) come the findings set out here.

Assay [1] concerns the target T1, PGD2 receptor (Homo sapiens, UniProt Q13258).
T1 construct: A suspension adjusted to contain the platelets at a final concentration of 5×10^8/ml was warmed at 37° C; endogenous in cells; host or cells: washed human platelets from a healthy volunteer
T1 sequence (Q13258 1-359): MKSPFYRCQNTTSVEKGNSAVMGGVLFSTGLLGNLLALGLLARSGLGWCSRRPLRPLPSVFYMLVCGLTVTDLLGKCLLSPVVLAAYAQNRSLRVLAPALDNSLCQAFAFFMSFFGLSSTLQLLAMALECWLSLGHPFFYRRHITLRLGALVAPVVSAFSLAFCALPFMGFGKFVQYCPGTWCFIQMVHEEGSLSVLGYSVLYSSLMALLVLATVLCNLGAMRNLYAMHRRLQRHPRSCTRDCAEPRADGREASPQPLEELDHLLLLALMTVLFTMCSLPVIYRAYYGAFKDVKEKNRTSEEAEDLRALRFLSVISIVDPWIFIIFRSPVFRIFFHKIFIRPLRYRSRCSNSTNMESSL
Kind of assay: Antagonistic activity against PGD2 receptor using human platelet (inhibition of PGD2-induced cAMP increase). The class given is cell-based. The procedure: Experiment 3 Evaluation of Antagonistic Activity Against PGD2 Receptor
Receptor Using Human Platelet
Peripheral blood was collected from a healthy volunteer using a syringe in which 1/9 volume of a citric acid/dextrose solution was previously added. The sample was subjected to centrifugation at 1200 rpm for 10 min to obtain the supernatant (PRP: platelet rich plasma). The resultant PRP was washed 3 times with a washing buffer and the number of platelets was counted with a micro cell counter. A suspension adjusted to contain the platelets at a final concentration of 5×10^8/ml was warmed at 37° C., then subjected to the pre-treatment with 3-isobutyl-1-methylxanthine (0.5 mM) for 5 min. To the suspension was added a test compound diluted at various concentration, and 10 minutes later, 0.1 μM PGD2 was added to induce the reaction 2 minutes later, hydrochloric acid was added to terminate the reaction. The platelet was destroyed with an ultrasonic homogenizer. After centrifugation, the cAMP in the supernatant was determined by radioimmunoassay. PGD2 receptor antagonism of a drug was evaluated as follows: the inhibition rate regarding cAMP increased by the addition of PGD2 was determined at each concentration, and the concentration of the drug required for 50% inhibition (IC50) was calculated.

Another assay has as its target T2, TXA2 receptor (Homo sapiens, UniProt P21731).
T2 construct: The human platelet membrane fraction was prepared in accordance with Experiment 1 (1); from tissue; host or cells: human platelet membrane fraction from blood of healthy volunteers
T2 sequence (P21731 1-343): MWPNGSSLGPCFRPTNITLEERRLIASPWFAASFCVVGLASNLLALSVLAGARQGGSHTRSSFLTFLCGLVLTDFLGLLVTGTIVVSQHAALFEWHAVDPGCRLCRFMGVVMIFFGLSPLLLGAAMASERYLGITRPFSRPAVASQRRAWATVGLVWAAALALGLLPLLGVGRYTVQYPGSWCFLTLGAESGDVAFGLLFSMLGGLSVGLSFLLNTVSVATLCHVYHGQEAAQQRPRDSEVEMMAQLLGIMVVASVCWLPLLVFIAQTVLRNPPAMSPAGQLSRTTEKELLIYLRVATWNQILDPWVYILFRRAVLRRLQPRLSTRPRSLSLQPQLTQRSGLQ
In words: Binding activity to TXA2 receptor ([3H](+)-S-145 sodium salt, human platelet membrane fraction). Here is the method: Experiment 2 Binding Activity to TXA2 Receptor
(1) Preparation of Human Platelet Membrane Fraction
The human platelet membrane fraction was prepared in accordance with Experiment 1 (1).
(2) Binding to TXA2 Receptor
To a binding-reaction solution (50 mM Tris/HCl, pH 7.4, 10 mM MgCl2) (0.2 ml) were added the human platelet membrane fraction (0.05 mg) and 2 nM Sodium [^3H](+)-(5Z)-7-[3-endo-[(phenylsulfonyl)amino]bicyclo[2.2.1]hept-2-exo-yl]heptenoate (Japanese Patent Publication (Kokoku) No.79060/1993, hereinafter referred to as (+)-S-145 sodium salt) (26.4 Ci/mmol), and the mixture was reacted at room temperature for 90 min. After the reaction, the resultant mixture was filtered through a glass fiber filter paper and washed several times with cooled physiological saline, then the radioactivity retained on the filter paper was measured. The specific-binding ratio was calculated by subtracting the non-specific binding ratio (the radio activity similarly determined in the presence of 10 μM (+)-S-145 sodium salt) from the total binding. The inhibitory activity of each compound was expressed as the concentration required for 50% inhibition (IC50), which was determined by depicting a substitution curve by plotting the binding ratio (%) in the presence of each compound, where the binding ratio in the absence of a test compound is 100%.

Assay [2] relates to PGD2 receptor. In words: Acceleration of vascular permeability of conjunctiva induced by PGD2 (Evans blue dye leakage). The class given is in vivo, guinea pig. As to conditions: for ED50 PGD2: oral, 1 h before challenge, 0.1% PGD2 instillation, conjunctival dye leakage, guinea pigs; for inhibition of the increase in vascular permeability in conjunctiva by the stimulation with PGD2: summary of Table 80, oral 1 h before challenge, guinea pig. Here is the method: Acceleration of Vascular Permeability of Conjunctiva Induced by PGD2 and U-46619
Using male Hartley guinea pigs, PGD2- and TxA2 receptor-mediated increase in conjunctival vascular permeability was produced by instillation of each 10 μl solution of either 0.1% PGD2 or U-46619 (TXA2 receptor agonist) to the both eyes without anesthetization. Immediately after that, Evans blue dye (20 mg/kg) was intravenously injected. 30 min after the challenge, guinea pigs were sacrificed by bleeding under anesthesia with Pentobarbital (30 mg/kg, i.p.) and the tissue of conjunctiva was removed. The dye leaked into the tissue was extracted in formamide 3 ml at 60° C. for more than 24 h, and then centrifuged. The absorbance of the supernatant was measured at 620 nm. The amount of dye was calculated from the calibration curve of Evans blue dye. Each compound was suspended in 0.5% methyl-cellulose and administrated orally at 1 h before the challenge. The antagonistic activity was evaluated by the inhibition ratio against the dye leaked into conjunctiva caused by PGD2 or U-46619 at each dose and then a 50% effective dose of inhibition (ED50 value) of each compound was calculated.

Assay [3] has as its system Eosinophil Number in Bronchoalveolar Lavage Fluid. Kind of assay: Antigen-induced increase in the eosinophil number in bronchoalveolar lavage fluid. The note with it: for suppression of eosinophil infiltration: summary of Table 77 to Table 79, bronchoalveolar lavage fluid. The class given is in vivo, guinea pig. Here is the method: Antigen-Induced Increase in the Eosinophil Number in Bronchoalveolar Lavage Fluid.
Bronchoalveolar lavage was performed with 10 mL of saline, after the animals were sensitized and challenged with antigen. The number of total cells in the recovered fluid was stained with Türk and counted using hemocytometer. *: P<0.05, **:P<0.01 vs Vehicle(Dunnett's test), ^##: P<0.01 vs Vehicle(Student's t test). ( ): inhibition %.

Setting [4] is: comparative experiment in accordance with Experiment 3, read-out: Experiment 3 Antagonistic activity against PGD2 receptor IC50.
The mark [5] stands for this setting: comparative experiment in accordance with Experiment 2, read-out: Experiment 2 Antagonistic activity against TXA2 receptor IC50.
Where [6] appears, read: 10 mg/kg, bronchoalveolar lavage fluid after antigen challenge.

What is called IC50 is the midpoint of a concentration-inhibition curve. What is called inhibition is the relative decrease from the control value, in per cent.

Like-named read-outs stand apart in the source and are kept apart here. A value given as a limit tells only on which side of the number the result lay.

Consider `O=C(O)CCC/C=C\C[C@H]1[C@@H]2CC[C@@H](C2)[C@@H]1NS(=O)(=O)c1ccccc1` [A, reference compound], for which the IC50 on PGD2 receptor [1] (setting [4]) is > 10000 nM; at TXA2 receptor (setting [5]) it was 3.8 nM. Further, the “ED50 PGD2” value in the assay with PGD2 receptor [2] is on record as >30 mg/kg. Moreover, in the assay with PGD2 receptor [2], the “inhibition of the increase in vascular permeability in conjunctiva by the stimulation with PGD2” value was “suppressed only U-46619-induced response”. Besides, the Total cells in assay [3] (setting [6]) was 15.20 ± 2.20 × 10^6 cells/animal. Besides, the inhibition at 10 mg/kg in assay [3] (Cavia porcellus, Eosinophil, 10 mg/kg, bronchoalveolar lavage fluid after antigen challenge, read-out: inhibition % (total cells in bronchoalveolar lavage fluid) (converted)) was -12%. Moreover, the “suppression of eosinophil infiltration” value in assay [3] was “did not show any inhibitory actions”.

`Cc1cccn1S(=O)(=O)c1ccc(C(=O)N[C@@H]2[C@@H](CCCC/C=C/C(=O)O)C[C@H]3C[C@@H]2C3(C)C)s1` [II-7I-55a]: the IC50 on PGD2 receptor [1] (setting [4]) was 63 nM; on PGD2 receptor [1] (human platelet, 0.1 μM PGD2, read-out: Inhibitory activity for the increase of cAMP caused by PGD2 in human platelet IC50), 63 nM; on TXA2 receptor (setting [5]), 2.3 nM; at TXA2 receptor (human platelet membrane fraction, 2 nM [3H](+)-S-145 sodium salt, read-out: Binding activity to TXA2 receptor in human platelet membrane fraction IC50), 2.3 nM. In addition, the “ED50 PGD2” value in the assay with PGD2 receptor [2] amounted to 0.33 mg/kg. Moreover, in the assay with PGD2 receptor [2], the “inhibition of the increase in vascular permeability in conjunctiva by the stimulation with PGD2” value was “showed both responses”. For the same compound, the Total cells in assay [3] (setting [6]) is recorded as 12.26 ± 1.54 × 10^6 cells/animal. Moreover, the “inhibition % (total cells in bronchoalveolar lavage fluid)” value in assay [3] (setting [6]) was determined as 80%. For the same compound, the “suppression of eosinophil infiltration” value in assay [3] is “significantly suppressed”.
